One assay relates to Nicotiana benthamiana. As to the kind of experiment: Test Example 6: growth promotion under low-temperature stress by hydroponics of Nicotiana benthamiana (0.1 ppm). Format: in vivo. As to conditions: compound at 0.1 ppm, 7 days at 1.5±1.0° C. low-temperature stress, then 3 days at 22° C., 5 or greater = growth promotion effect, read-out: value of a relative leaf area (Equation (1), area of green leaf). The procedure:
Test Example 6. Test for Evaluating Growth Promotion Under Low-Temperature Stress by Hydroponics of Nicotiana benthamiana
(§1) (Cultivation and Compound Treatment)
(§2) A DMSO solution, which contained one of the compounds 2, 3, 7, 11 to 13, 20, 23, 24, 30, 38, 39, 41 to 43, 46, 50, 64, 68, 80, 82, 88, 93, 94, 96, 104, 107, and 112 of the present invention at a concentration of 1,000 ppm, was prepared. The DMSO solution of the compound of the present invention was added at a volume ratio of 1/1,000 to the Murashige⋅Scoog medium of a ½-fold concentration (a medium containing 2.3 g of mixed salts (manufactured by Wako Pure Chemical Industries, Ltd.), 200 mg of Myo-inositol (manufactured by Sigme-Aldrich Co. LLC.), 2 mg of niconitic acid (manufactured by Wako Pure Chemical Industries, Ltd.), 2 mg of pyridoxine hydrochloride (manufactured by Wako Pure Chemical Industries, Ltd.), 20 mg of thiamine hydrochloride (manufactured by Wako Pure Chemical Industries, Ltd.), 20 g of sucrose (manufactured by Wako Pure Chemical Industries, Ltd.), and 1 g of MCS (manufactured by DOJINDO LABORATORIES) respectively per 1 L of water and having pH adjusted to 5.8), thereby preparing a medium containing the compound of the present invention at a concentration of 0.1 ppm.
(§3) Seeds of Nicotiana benthamiana were seeded in the 5 μL of the medium and cultured overnight at 22° C. Thereafter, 45 μL of the medium containing the compound of the present invention at a concentration of 0.1 ppm was added thereto, and the seeds are cultured for 7 days at 22° C. under the conditions of an illuminance of 4,000 lux, and a day length of 16 hours, and the seedlings raised from the Nicotiana benthamiana were treated with the compound. Moreover, instead of the above medium a test plot, which was obtained by performing the same treatment by using a medium prepared by adding DMSO to the Murashige′Scoog medium of ½-fold concentration at a volume ratio of 1/1,000, was used as a control plot not treated with the compound.
(§4) (Low-Temperature Stress Treatment)
(§5) The seedlings of the Nicotiana benthamiana treated with the compound were subjected to low-temperature treatment by being cultured for 7 days at 1.5±1.0° C., under the conditions of an illuminance of 2,000 lux, and a day length of 16 hours.
(§6) The seedlings of the Nicotiana benthamiana having undergone the low-temperature stress treatment were cultured for 3 days at 22° C., under the conditions of an illuminance of 4,000 lux, and a day length of 16 hours. Thereafter, the area of green leaf was quantified by Scanalyzer HTS (manufactured by LemnaTec GmbH). Moreover, the value of the control plot not treated with the compound that had not yet been subjected to the low-temperature stress treatment was measured in the same manner. A value of a relative leaf area was calculated based on the following equation (1), and if the relative value of leaf area was 5 or greater, the compound was evaluated to have a growth promotion effect. As a result of the evaluation, it was confirmed that when the plant was treated with one of the compounds 2, 3, 7, 11 to 13, 20, 23, 24, 30, 38, 39, 41 to 43, 46, 50, 64, 68, 80, 82, 88, 93, 94, 96, 104, 107, and 112 of the present invention at 0.1 ppm, the value of a relative leaf area was 5 or greater, compared to the area of green leaf of the control plot not treated with compound. Accordingly, it was confirmed that the treatment using the compound of the present invention improve a growth promotion effect. Relative leaf area=100*(a green area of a plot treated with the compound of the present invention minus(−) a green area of a plot not treated with the compound of the present invention)/(a green area of a control plot not treated with the compound of the present invention that had not yet been subjected to low-temperature stress treatment minus(−) green area of a control plot not treated with the compound of the present invention) Equation (1): […]
For `O=C(O)c1cc2cc(F)ccc2s1` [Present compound 2, 5-fluorobenzo[b]thiophene-2-carboxylic acid], the relative green leaf area at 0.1 ppm is not below 5%.

Regarding `Cc1cccc2sc(C(=O)O)cc12` [Present compound 20, 4-methylbenzo[b]thiophene-2-carboxylic acid], the relative green leaf area at 0.1 ppm was not below 5%.

In the case of `Cc1cccc2cc(C(=O)O)sc12` [Present compound 23, 7-methylbenzo[b]thiophene-2-carboxylic acid], the relative green leaf area at 0.1 ppm was not below 5%.

As to `Cc1c(C(=O)O)sc2ccccc12` [Present compound 24, 3-methylbenzo[b]thiophene-2-carboxylic acid], the relative green leaf area at 0.1 ppm is not below 5%.

For another assay, the system named is Nicotiana benthamiana. Nature of the assay: Test Example 4: growth promotion under low-temperature stress by hydroponics of Nicotiana benthamiana (10 ppm). Format: in vivo. As to conditions: compound at 10 ppm, 7 days at 1.5±1.0° C. low-temperature stress, then 3 days at 22° C., 5 or greater = growth promotion effect, read-out: value of a relative leaf area (Equation (1), area of green leaf). The method, then:
Test Example 4. Test for Evaluating Growth Promotion Under Low-Temperature Stress by Hydroponics of Nicotiana benthamiana
as §1
as §2, with “compounds 4, 5, 6, 8, 14, 17, 19, 22, 26, 45, 51, 53, 57, 59, 65, 69, 70, 75, 77, 79, 91, 97, 99, 101,” for “compounds 2, 3, 7, 11 to 13, 20, 23, 24, 30, 38, 39, 41 to 43, 46, 50, 64, 68, 80, 82, 88, 93, 94, 96, 104, 107,”, “and 110” for “and 112”, “of 10,000” for “of 1,000”, “of MES” for “of MCS”, “of 10” for “of 0.1”
as §3, with “the […]” for “the 5 μL of the”, “concentration of 10 ppm was” for “concentration of 0.1 ppm was”, “at 22° C., under the” for “at 22° C. under the”, “and the seedling raised from” for “and the seedlings raised from”, “to the Murashige⋅Scoog medium of” for “to the Murashige′Scoog medium of”
as §4, §5
as §6, with “22° C., an illuminance” for “22° C., under the conditions of an illuminance”, “value of leafed area was” for “value of leaf area was”, “the compounds 4, 5, 6, 8, 14, 17, 19, 22, 26, 45, 51, 53, 57, 59, 65, […], 69, 70, 75, 77, 79, 91, 97, 99, 101, and 110” for “the compounds 2, 3, 7, 11 to 13, 20, 23, 24, 30, 38, 39, 41 to 43, 46, 50, 64, 68, 80, 82, 88, 93, 94, 96, 104, 107, and 112”, “101, and 110 of the” for “107, and 112 of the”, “invention at 10 ppm, the” for “invention at 0.1 ppm, the”, “treatment minus(−) a green area” for “treatment minus(−) green area”
Consider `O=C(O)c1cc2cc(Cl)ccc2s1` [Present compound 6, 5-chlorobenzo[b]thiophene-2-carboxylic acid], for which the relative green leaf area at 10 ppm was not below 5%.

On to `O=C(O)c1cc2c(I)cccc2s1` [Present compound 14], for which the relative green leaf area at 10 ppm was not below 5%.

In the case of `O=C(O)c1cc2c([N+](=O)[O-])cccc2s1` [Present compound 17, 4-nitrobenzo[b]thiophene-2-carboxylic acid], the relative green leaf area at 10 ppm is not below 5%.

Take `O=C(O)c1cc2ccc([N+](=O)[O-])cc2s1` [Present compound 19, 6-nitrobenzo[b]thiophene-2-carboxylic acid]: the relative green leaf area at 10 ppm is not below 5%.

With `Cc1ccc2cc(C(=O)O)sc2c1` [Present compound 22], the relative green leaf area at 10 ppm was not below 5%.

For `O=C(O)c1sc2ccccc2c1C(F)(F)F` [Present compound 26, 3-(trifluoromethyl)benzo[b]thiophene-2-carboxylic acid], the relative green leaf area at 10 ppm was not below 5%.

Regarding `O=C(O)c1cc2cc(-c3cccnc3)ccc2s1` [Present compound 45, 5-(3-pyridyl)benzo[b]thiophene-2-carboxylic acid], the relative green leaf area at 10 ppm is not below 5%.

With `O=C(O)c1ccc2sc(C(=O)O)cc2c1` [Present compound 53, benzo[b]thiophene-2,5-dicarboxylic acid], the relative green leaf area at 10 ppm is not below 5%.

With `O=C(c1ccccc1)c1ccc2sc(C(=O)O)cc2c1` [Present compound 57, 5-benzoylbenzo[b]thiophene-2-carboxylic acid], the relative green leaf area at 10 ppm was not below 5%.

Consider `NC(=O)c1ccc2sc(C(=O)O)cc2c1` [Present compound 59, 5-aminocarbonylbenzo[b]thiophene-2-carboxylic acid], for which the relative green leaf area at 10 ppm was not below 5%.

Consider `O=C(Nc1ccc2sc(C(=O)O)cc2c1)c1ccccc1` [Present compound 65, 5-(benzoylamino)benzo[b]thiophene-2-carboxylic acid], for which the relative green leaf area at 10 ppm is not below 5%.

Regarding `CC(=O)Nc1c(C(=O)O)sc2ccccc12` [Present compound 69, 3-acetylamino-benzo[b]-thiophene-2-carboxylic acid], the relative green leaf area at 10 ppm is not below 5%.

In the case of `O=C(O)c1cc2cc(NC(=O)C(F)(F)F)ccc2s1` [Present compound 70, 5-(trifluoroacetylamino)benzo[b]thiophene-2-carboxylic acid], the relative green leaf area at 10 ppm was not below 5%.

As for `Cc1ccc(S(=O)(=O)Nc2ccc3sc(C(=O)O)cc3c2)cc1` [Present compound 75, 5-[(4-methylphenylsulfonyl)amino]benzo[b]thiophene-2-carboxylic acid], the relative green leaf area at 10 ppm is not below 5%.

With `O=C(O)c1cc2cc(O)ccc2s1` [Present compound 77], the relative green leaf area at 10 ppm was not below 5%.

For the molecule `O=C(O)c1cc2cccc(O)c2s1` [Present compound 79], the relative green leaf area at 10 ppm is not below 5%.

Regarding `O=C(O)c1cc2ccc(OCc3ccc(C(F)(F)F)cc3)cc2s1` [Present compound 91, 6-(4-trifluoromethylbenzyloxy)benzo[b]thiophene-2-carboxylic acid], the relative green leaf area at 10 ppm was not below 5%.

In the case of `CSc1ccc2sc(C(=O)O)cc2c1` [Present compound 97, 5-methylthiobenzo[b]thiophene-2-carboxylic acid], the relative green leaf area at 10 ppm is not below 5%.

As to `O=C(O)c1cc2cc([S+]([O-])C(F)(F)F)ccc2s1` (stereo not shown) [Present compound 99, 5-(trifluoromethylsulfinyl)benzo[b]thiophene-2-carboxylic acid], the relative green leaf area at 10 ppm is not below 5%.

Regarding `O=C(O)c1cc2cc(S(F)(F)(F)(F)F)ccc2s1` [Present compound 101, 5-pentafluorosulfanylbenzo[b]thiophene-2-carboxylic acid], the relative green leaf area at 10 ppm is not below 5%.

Consider `CN(C)c1c(C(=O)O)sc2ccc(C(F)(F)F)cc12` [Present compound 110, 3-(N,N-dimethylamino)-5-trifluoromethylbenzo[b]thiophene-2-carboxylic acid], for which the relative green leaf area at 10 ppm is not below 5%.

(Values after patent US9955689B2, “Method for promoting plant growth” (SUMITOMO CHEMICAL COMPANY, LIMITED, priority 2012, dated 2018).)
